Patent publication US11572362B2, “Pyrrolo[1,2-b]pyridazine derivatives” (Gilead Sciences, Inc., priority 2018, dated 2023)

Assays:
TNFα = assay: IRAK4 Monocyte TNFα Cell Based Assay; settings: Monocyte; cryopreserved human monocytes, 50 pg/ml LPS, compound 1 hour pre-treatment, 4 hours stimulation, TNFα by TR-FRET
Protocol: IRAK4 Monocyte TNFα Cell Based Assay Procedure:
The cell suspension was then plated at a density of 5,000 cells/well onto black 384 well Greiner clear bottom plates. Plates were pre-spotted with test compounds and serially diluted in DMSO where 40 nL/well were delivered using the Echo 550 acoustic liquid dispenser (Labcyte®) for a final DMSO concentration of 0.1%. Plated cells were treated with compound for 1 hour at 37° C. Cells were then stimulated with 50 pg/ml of LPS (Sigma) excluding outside columns of plate used for unstimulated cell control wells. Cells were incubated for an additional 4 hours at 37° C. Cells were then spun out of the media and 5 μl of sample were taken and analyzed for total TNFα content using the TR-FRET Human TNFα detection system (CisBio). This system utilizes two labeled antibodies (cryptate and XL665) that bind to two different epitopes of the TNFα molecule and produce FRET signal proportional to the concentration of TNFα in the sample. Detection antibodies are mixed 50:50 and 5 μL were dispensed into each well. Plates were covered with clear seals and incubated at room temp overnight. The following morning plates were read using an Envision 2103 Multilabeled reader (PerkinElmer) with excitation/emission/FRET emission at 340 nm/615 nm/665 nm, respectively. Fluorescence intensities at 615 nm and 665 nm emission wavelengths were expressed as a ratio (665 nm/615 nm). Percent of control was calculated as follows: % Control=100×(RatioSample−Ratio0% Stimulation)/(Ratio100% Stimulation−Ratio0% Stimulation)
where unstimulated cells (0% stimulation) were the negative control and stimulated cells (100% stimulation) were used as the positive control.

IRAK4 = IRAK4 (Homo sapiens (Human), UniProt Q9NWZ3); assay: IRAK4 Biochemical Assay (TR-FRET/HTRF); settings: IRAK4 enzyme 0.75 nM, 500 μM ATP, 2 μM STK1 peptide, 120 min
IRAK4, sequence (Q9NWZ3 whole entry): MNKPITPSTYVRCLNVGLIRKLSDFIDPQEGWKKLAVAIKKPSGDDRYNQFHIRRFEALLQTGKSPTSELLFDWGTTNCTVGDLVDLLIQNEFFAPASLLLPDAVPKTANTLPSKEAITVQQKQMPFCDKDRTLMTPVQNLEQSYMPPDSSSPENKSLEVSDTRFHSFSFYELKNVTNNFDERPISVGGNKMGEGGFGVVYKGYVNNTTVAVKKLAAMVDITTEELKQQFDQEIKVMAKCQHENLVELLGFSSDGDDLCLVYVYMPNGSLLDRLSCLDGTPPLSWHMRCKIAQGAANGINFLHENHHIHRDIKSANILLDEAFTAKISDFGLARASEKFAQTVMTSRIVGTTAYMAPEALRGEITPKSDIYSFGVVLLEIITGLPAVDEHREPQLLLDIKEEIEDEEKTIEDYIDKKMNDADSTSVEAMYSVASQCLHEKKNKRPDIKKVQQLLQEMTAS
Protocol: IRAK4 Biochemical Assay Procedure:
IRAK4 enzyme (Carna Biosciences, Chuo-ku, Kobe, Japan) activity was measured by detecting phosphorylated peptide substrate formation using an antibody against the phosphorylated peptide substrate. This is a time-resolved fluorescence resonance energy transfer (TR-FRET) immunoassay, based on the STK1 KinEASE Assay (Cisbio, Bedford, Mass.). The assay was designed as a simple two-step, endpoint assay (a 5 μl enzyme reaction followed by 5 μl stop and detect Solution) performed in ProxiPlate-384 Plus plates (Perkin Elmer, Waltham, Mass.). Staurosporine, a non-selective kinase inhibitor was used as a positive control. Compounds diluted in DMSO were spotted into 384 well plates using a Labcyte® Echo 550 Liquid Handling System prior to addition of IRAK4 enzyme and peptide substrate. Reaction solutions were delivered using a Multi-Flo (Bio-Tek Instruments). The enzyme and peptide solution was incubated with compound for 15 minutes at room temp before the reaction was initiated by the addition of ATP. The standard 5 μl reaction mixture contained 500 μM ATP, 2 μM peptide (STK1 Peptide), 0.75 nM of IRAK4 in reaction buffer (50 mM HEPES, pH 7.0, 0.02% NaN3, 0.01% BSA, 0.1 mM Orthovanadate, 5 mM MgCl2, 0.025% NP-40, 1 mM DTT). After 120 min of incubation at room temperature, 5 μl of Stop and Detect Solution (1:100 Cryptate labeled anti-phosphorylated peptide antibody solution and 125 nM Tracer in a 50 mM HEPES pH 7.0 detection buffer containing sufficient EDTA) was added. The plate was then further incubated for 60 minutes at room temperature and read on Envision 2103 Multilabeled reader (PerkinElmer) with excitation/emission/FRET emission at 340 nm/615 nm/665 nm, respectively. Fluorescence intensities at 615 nm and 665 nm emission wavelengths were expressed as a ratio (665 nm/615 nm). Percentage of inhibition was calculated as below: % Inhibition=100×(RatioSample−Ratio0% Inhibition)/(Ratio100% Inhibition−Ratio0% Inhibition)
The 0% inhibition value comes from control wells lacking inhibitor. The 100% inhibition value comes from control wells containing a saturating amount of known inhibitor staurosporine.

| SMILES | EC50 (TNFα) [nM] | IC50 (IRAK4) [nM] |
| --- | --- | --- |
| CC(C)(O)[C@H](F)CNC(=O)c1cnc(-c2ccc3cc(C#N)cnn23)cc1N[C@H]1CC[C@H](n2cc(CC#N)cn2)CC1 [Compound 27, 4-(((1r,4R)-4-(4-(cyanomethyl)-1H-pyrazol-1-yl)cyclohexyl)amino)-6-(3-cyanopyrrolo[1,2-b]pyridazin-7-yl)-N-((R)-2-fluoro-3-hydroxy-3-methylbutyl)nicotinamide] | 58 | < 1 |
| CC(C)(O)[C@H](F)CNC(=O)c1cnc(-c2ccc3cc(C#N)cnn23)cc1N[C@H]1CC[C@H](c2cncnc2)CC1 [Compound 57, 6-(3-cyanopyrrolo[1,2-b]pyridazin-7-yl)-N-((R)-2-fluoro-3-hydroxy-3-methylbutyl)-4-(((1r,4R)-4-(pyrimidin-5-yl)cyclohexyl)amino)nicotinamide] | 11 | 2 |
| CC(C)(O)[C@H](F)CNC(=O)c1cnc(-c2ccc3cc(C#N)cnn23)cc1N[C@H]1CC[C@H](c2cnn(C3CC3)c2)CC1 [Compound 14, 6-(3-cyanopyrrolo[1,2-b]pyridazin-7-yl)-4-(((1r,4R)-4-(1-cyclopropyl-1H-pyrazol-4-yl)cyclohexyl)amino)-N-((R)-2-fluoro-3-hydroxy-3-methylbutyl)nicotinamide] | 53 | 1 |
| CC(C)(O)[C@H](F)CNC(=O)c1cnc(-c2ccc3cc(C#N)cnn23)cc1NC12CCC(N3CCOCC3=O)(CC1)CC2 [Compound 69, (R)-6-(3-cyanopyrrolo[1,2-b]pyridazin-7-yl)-N-(2-fluoro-3-hydroxy-3-methylbutyl)-4-((4-(3-oxomorpholino)bicyclo[2.2.2]octan-1-yl)amino)nicotinamide] | 15 | < 1 |
| Cc1nc([C@H]2CC[C@H](Nc3cc(-c4ccc5cc(C#N)cnn45)ncc3C(=O)NC[C@@H](F)C(C)(C)O)CC2)no1 [Compound 44, 6-(3-cyanopyrrolo[1,2-b]pyridazin-7-yl)-N-((R)-2-fluoro-3-hydroxy-3-methylbutyl)-4-(((1r,4R)-4-(5-methyl-1,2,4-oxadiazol-3-yl)cyclohexyl)amino)nicotinamide] | 28 | < 1 |
| CC(C)(O)[C@H](F)CNC(=O)c1cnc(-c2ccc3cc(C#N)cnn23)cc1N[C@H]1CC[C@H](c2cncs2)CC1 [Compound 49, 6-(3-cyanopyrrolo[1,2-b]pyridazin-7-yl)-N-((R)-2-fluoro-3-hydroxy-3-methylbutyl)-4-(((1r,4R)-4-(thiazol-5-yl)cyclohexyl)amino)nicotinamide] | 13 | < 1 |
| COCc1nnc([C@H]2CC[C@H](Nc3cc(-c4ccc5cc(C#N)cnn45)ncc3C(=O)NC[C@@H](F)C(C)(C)O)CC2)o1 [Compound 40, 6-(3-cyanopyrrolo[1,2-b]pyridazin-7-yl)-N-((R)-2-fluoro-3-hydroxy-3-methylbutyl)-4-(((1r,4R)-4-(5-(methoxymethyl)-1,3,4-oxadiazol-2-yl)cyclohexyl)amino)nicotinamide] | 66 | 1 |

Further lines, results first:

| EC50 (TNFα) [nM] | IC50 (IRAK4) [nM] | SMILES |
| --- | --- | --- |
| 187 | 2 | CC(C)(O)[C@H](F)CNC(=O)c1cnc(-c2ccc3cc(C#N)cnn23)cc1N[C@H]1CC[C@H](n2nccc2C(F)F)CC1 [Compound 28, 6-(3-cyanopyrrolo[1,2-b]pyridazin-7-yl)-4-(((1r,4R)-4-(5-(difluoromethyl)-1H-pyrazol-1-yl)cyclohexyl)amino)-N-((R)-2-fluoro-3-hydroxy-3-methylbutyl)nicotinamide] |
| 17 | 1 | Cc1c([C@H]2CC[C@H](Nc3cc(-c4ccc5cc(C#N)cnn45)ncc3C(=O)NC[C@@H](F)C(C)(C)O)CC2)cnn1C(F)F [Compound 11, 6-(3-cyanopyrrolo[1,2-b]pyridazin-7-yl)-4-(((1r,4R)-4-(1-(difluoromethyl)-5-methyl-1H-pyrazol-4-yl)cyclohexyl)amino)-N-((R)-2-fluoro-3-hydroxy-3-methylbutyl)nicotinamide] |
| 24 | < 1 | CC(C)(O)[C@H](F)CNC(=O)c1cnc(-c2ccc3cc(C#N)cnn23)cc1N[C@H]1CC[C@H](n2cnnn2)CC1 [Compound 38, 4-(((1r,4R)-4-(1H-tetrazol-1-yl)cyclohexyl)amino)-6-(3-cyanopyrrolo[1,2-b]pyridazin-7-yl)-N-((R)-2-fluoro-3-hydroxy-3-methylbutyl)nicotinamide] |
| 24 | < 1 | CC(C)(O)[C@H](F)CNC(=O)c1cnc(-c2ccc3cc(C#N)cnn23)cc1N[C@H]1CC[C@H](c2nnc(C(F)F)o2)CC1 [Compound 42, 6-(3-cyanopyrrolo[1,2-b]pyridazin-7-yl)-4-(((1r,4R)-4-(5-(difluoromethyl)-1,3,4-oxadiazol-2-yl)cyclohexyl)amino)-N-((R)-2-fluoro-3-hydroxy-3-methylbutyl)nicotinamide] |
| 21 | 1 | CC(C)(O)[C@H](F)CNC(=O)c1cnc(-c2ccc3cc(C#N)cnn23)cc1NC1CCC(c2cnc(C(F)F)nc2)CC1 (stereo partly drawn) [Compound 59, (R)-6-(3-cyanopyrrolo[1,2-b]pyridazin-7-yl)-4-((4-(2-(difluoromethyl)pyrimidin-5-yl)cyclohexyl)amino)-N-(2-fluoro-3-hydroxy-3-methylbutyl)nicotinamide] |
| 40 | 1 | CC(C)(O)[C@H](F)CNC(=O)c1cnc(-c2ccc3cc(C#N)cnn23)cc1N[C@H]1CC[C@H](n2cnnc2C(F)F)CC1 [Compound 37, 6-(3-cyanopyrrolo[1,2-b]pyridazin-7-yl)-4-(((1r,4R)-4-(3-(difluoromethyl)-4H-1,2,4-triazol-4-yl)cyclohexyl)amino)-N-((R)-2-fluoro-3-hydroxy-3-methylbutyl)nicotinamide] |
| 43 | < 1 | CC(C)(O)[C@H](F)CNC(=O)c1cnc(-c2ccc3cc(C#N)cnn23)cc1N[C@H]1CC[C@H](n2cc(C(N)=O)nn2)CC1 [Compound 34, 4-(((1r,4R)-4-(4-carbamoyl-1H-1,2,3-triazol-1-yl)cyclohexyl)amino)-6-(3-cyanopyrrolo[1,2-b]pyridazin-7-yl)-N-((R)-2-fluoro-3-hydroxy-3-methylbutyl)nicotinamide] |
| 38 | 1 | CC(C)(O)[C@H](F)CNC(=O)c1cnc(-c2ccc3cc(C#N)cnn23)cc1N[C@H]1CC[C@H](n2ccc(C(F)F)n2)CC1 [Compound 23, 6-(3-cyanopyrrolo[1,2-b]pyridazin-7-yl)-4-(((1r,4R)-4-(3-(difluoromethyl)-1H-pyrazol-1-yl)cyclohexyl)amino)-N-((R)-2-fluoro-3-hydroxy-3-methylbutyl)nicotinamide] |
| 91 | < 1 | Cc1cnn([C@H]2CC[C@H](Nc3cc(-c4ccc5cc(C#N)cnn45)ncc3C(=O)NC[C@@H](F)C(C)(C)O)CC2)c1 [Compound 26, 6-(3-cyanopyrrolo[1,2-b]pyridazin-7-yl)-N-((R)-2-fluoro-3-hydroxy-3-methylbutyl)-4-(((1r,4R)-4-(4-methyl-1H-pyrazol-1-yl)cyclohexyl)amino)nicotinamide] |
| 124 | 2 | CC(C)(O)[C@H](F)CNC(=O)c1cnc(-c2ccc3cc(C#N)cnn23)cc1N[C@H]1CC[C@H](c2nc(C(F)F)co2)CC1 [Compound 46, 6-(3-cyanopyrrolo[1,2-b]pyridazin-7-yl)-4-(((1r,4R)-4-(4-(difluoromethyl)oxazol-2-yl)cyclohexyl)amino)-N-((R)-2-fluoro-3-hydroxy-3-methylbutyl)nicotinamide] |
